Experimental data published in ChEMBL document CHEMBL2028040, “Malaria Box”.

Columns and labels:
[1] = tested on: Trypanosoma brucei rhodesiense; assay: MMV: Inhibition of Trypanosoma brucei rhodesiense (STIB 900) (HAT in vitro).; type: functional, organism-based
[2] = tested on: Trypanosoma cruzi; assay: MMV: Inhibition of Trypanosoma cruzi (Tulahuen C4 LacZ) (Chagas in vitro).; type: functional, organism-based
[3] = tested on: Plasmodium falciparum; assay: MMV: Inhibition of Plasmodium falciparum 3D7 at 5uM compound concentration.; type: functional
[4] = tested on: Trypanosoma brucei brucei; assay: MMV: Inhibition of Trypanosoma brucei brucei (Squib 427) (HAT in vitro).; type: functional, organism-based
[5] = tested on: Leishmania infantum; assay: MMV: Inhibition of Leishmania infantum (MHOM/MA/BE/67) in vitro.; type: functional, organism-based
[6] = tested on: Plasmodium falciparum; assay: MMV: Inhibition of Plasmodium falciparum 3D7 (EC50).; type: functional, organism-based
[7] = MMV: Cytotoxicity against human fibroblasts (MRC-5) cells.; conditions: MRC-5 cells (human fibroblasts)
[8] = tested on: Plasmodium falciparum; assay: MMV: Inhibition of Plasmodium falciparum K1 (EC50).; type: functional, organism-based

| Structure (SMILES) | IC50 [1] | IC50 [2] | inhibition at 5 µM [3] | IC50 [4] | IC50 [5] | EC50 [6] | IC50 [7] | EC50 [8] |
| --- | --- | --- | --- | --- | --- | --- | --- | --- |
| COc1ccc(Nc2nc(N/N=C/c3ccc(O)cc3)nc(Nc3ccc([N+](=O)[O-])cc3)n2)cc1 | 9.88 µM | 18.6 µM | 98% | 14.7 µM | 21.5 µM | 0.532 µM | > 32 µM |  |
| Cc1ccc(-c2cc(C(=O)Nc3ccc(S(=O)(=O)N4CCCCC4)cc3)[nH]n2)c(O)c1 | > 32 µM | > 32 µM | 94% | > 32 µM | > 32 µM | 0.535 µM | > 32 µM |  |
| COc1cc(C(=O)Nc2ccc(-c3nc4ccccc4[nH]3)cc2)cc(OC)c1OC | 2.54 µM | > 32 µM | 95% | 3.37 µM | > 32 µM | 1.22 µM | > 32 µM |  |
| Cc1nc2ccccc2c(O)c1CC=C(Cl)Cl | > 32 µM | 1.88 µM | 89% | > 32 µM | > 32 µM | 0.836 µM | > 32 µM |  |
| c1ccc(-c2ccc(-c3nc4ccccc4[nH]3)cc2)cc1 | > 32 µM | > 32 µM | 52% | > 32 µM | > 32 µM | 1.07 µM | > 32 µM |  |
| O=C(NC1CCCCC1)C(c1cccs1)N(CCc1ccccc1)C(=O)c1ccco1 (configuration not stated) | 19.2 µM | > 32 µM | 90% | > 32 µM | > 32 µM | 1.07 µM | > 32 µM |  |
| CC(Oc1ccc(NC(=O)c2cccs2)cc1)C(=O)c1ccc(Cl)cc1 (configuration not stated) | 10.3 µM | 15.4 µM | 87% | 15.5 µM | > 32 µM | 1.03 µM | > 32 µM |  |
| O=[N+]([O-])c1ccc(C=NNc2nc3ccccc3[nH]2)cc1 | > 32 µM | > 32 µM | 99% | > 32 µM | 16.2 µM | 0.142 µM | > 32 µM |  |
| COc1ccc(CCN2CCC(CN(C)Cc3cnn(-c4ccccc4)c3)CC2)cc1 | 0.254 µM | 6.43 µM | 96% | 0.86 µM | 12 µM | 1.43 µM | 18.6 µM |  |
| COc1ccc(CNC(=O)c2cc3c(=O)n4ccccc4nc3n(CCc3ccccc3)c2=N)cc1 | 3.15 µM | 4.91 µM | 95% | 11.9 µM | 13.6 µM | 1.06 µM | 14.7 µM |  |
| CC(C)=CCN1CCC(C(=O)Nc2ccc(-c3nc4ccccc4[nH]3)cc2)CC1 | 2.34 µM | 23 µM | 96% | 5.04 µM | > 32 µM | 1.16 µM | > 32 µM |  |
| CCN(CC)CCn1c(=N)n(CC(O)c2ccc(Cl)c(Cl)c2)c2ccccc21 (configuration not stated) | 1.02 µM | 3.82 µM | 97% | 0.908 µM | 1 µM |  | 16.1 µM | 0.575 µM |
| O=C(CCc1ccco1)NC1CCN(CC2(c3ccc(Cl)cc3)CCC2)CC1 | 1.01 µM | 16.6 µM | 96% | 2.89 µM | 19 µM | 1.14 µM | > 32 µM |  |
| COCCN(C(=O)Cc1cccs1)C(C(=O)NCc1ccc(OC)cc1)c1ccc(C(C)C)cc1 (configuration not stated) | 16.2 µM | 16.3 µM | 92% | 16.2 µM | > 32 µM | 1.19 µM | 27 µM |  |
| FC(F)(F)c1cccc(CNC2CCN(CCc3ccccc3)CC2)c1 | 1.31 µM | 15.7 µM | 96% | 2.73 µM | 16.6 µM | 0.685 µM | > 32 µM |  |
| C=CC12CCN(CC1)C(C(O)c1ccnc3ccc(OC)cc13)C2 (configuration not stated) | 16 µM | > 32 µM |  | > 32 µM | > 32 µM |  | > 32 µM | 0.0281 µM |
| O=C(Nc1cccc(-c2nc3ccccc3[nH]2)c1)c1cccc(NC(=O)c2ccco2)c1 | > 32 µM | > 32 µM | 95% | > 32 µM | > 32 µM | 0.745 µM | > 32 µM |  |
| O=C(Nc1ccc(CN2CCOCC2)cc1)c1ccc(-c2ccc(Br)cc2)o1 | 3.86 µM | 11 µM | 96% | 3.61 µM | 18.4 µM | 1.36 µM | 4.81 µM |  |
| Cc1ccc2cc3c(N)c4c(C)ccc(C)c4nc3nc2c1 | 1.19 µM | 4.56 µM | 98% | 4.09 µM | 4.32 µM | 1.31 µM | 11.4 µM |  |
| CCn1c(SCC(=O)Nc2cc(C(F)(F)F)ccc2Cl)nc2ccccc2c1=O | > 32 µM | > 32 µM | 91% | > 32 µM | > 32 µM | 1 µM | > 32 µM |  |
| CC(O)(c1ccc(Cl)cc1)C(CN1CCCCC1)c1ccccc1 (configuration not stated) | 14.8 µM | > 32 µM | 94% | 16.1 µM | > 32 µM |  | > 32 µM | 0.576 µM |
| O=C(Cc1ccccc1)NC(c1ccc(Cl)cc1)c1c(O)ccc2ccccc12 (configuration not stated) | 3.7 µM | 3.65 µM | 97% | 4.06 µM | 4.76 µM | 1.14 µM | 8.22 µM |  |
| CCCc1c(C)nc2ccc(Br)cc2c1O | > 32 µM | > 32 µM | 64% | > 32 µM | > 32 µM | 1.19 µM | > 32 µM |  |
| CC1=C(CC(=O)c2cccc([N+](=O)[O-])c2)C(=O)c2ccccc2C1=O | 16 µM | 13.4 µM | 95% | 14.5 µM | > 32 µM | 0.381 µM | > 32 µM |  |
| COc1ccc(C(=O)C2CC2c2ccc(Cl)cc2)cc1 (configuration not stated) | > 32 µM | > 32 µM | 94% | > 32 µM | > 32 µM | 1.06 µM | > 32 µM |  |
| CCCCCn1c(=N)n(CC(O)COc2cccc(C)c2)c2ccccc21 (configuration not stated) | 0.986 µM | 4.21 µM | 96% | 0.923 µM | 3.41 µM |  | 15.5 µM | 1.25 µM |
| CN1c2ccccc2N(C)C1c1ccc2c(c1)OCO2 | > 32 µM | > 32 µM | 60% | > 32 µM | > 32 µM | 0.994 µM | > 32 µM |  |
| O=C(NCC1Cc2cccc(-c3ccncc3)c2O1)c1csc2c1CCCC2 (configuration not stated) | 13.9 µM | 5.16 µM | 87% | 16.5 µM | > 32 µM | 1.72 µM | 28.5 µM |  |
| C=C(C)CCC(C)N1CCC(N2CCC(C(=O)NCCc3ccccc3)CC2)CC1 (configuration not stated) | 7.79 µM | 18.2 µM | 96% | 17.7 µM | > 32 µM | 1.75 µM | 19 µM |  |
